{
  "source": "paper PMC7170889",
  "about": "“Synthesis and evaluation of designed PKC modulators for enhanced cancer immunotherapy” (Nature Communications, 2020)",
  "key": {"[1]": {"molecular_target": "T1, PKCδ-GFP fusion protein (Homo sapiens, UniProt Q05655)", "T1 construct": "expressed in transfected cells; host or cells: CHO-k1 (Chinese hamster ovary, ATCC)", "T1 sequence (Q05655 whole entry, the tested form may be a part)": "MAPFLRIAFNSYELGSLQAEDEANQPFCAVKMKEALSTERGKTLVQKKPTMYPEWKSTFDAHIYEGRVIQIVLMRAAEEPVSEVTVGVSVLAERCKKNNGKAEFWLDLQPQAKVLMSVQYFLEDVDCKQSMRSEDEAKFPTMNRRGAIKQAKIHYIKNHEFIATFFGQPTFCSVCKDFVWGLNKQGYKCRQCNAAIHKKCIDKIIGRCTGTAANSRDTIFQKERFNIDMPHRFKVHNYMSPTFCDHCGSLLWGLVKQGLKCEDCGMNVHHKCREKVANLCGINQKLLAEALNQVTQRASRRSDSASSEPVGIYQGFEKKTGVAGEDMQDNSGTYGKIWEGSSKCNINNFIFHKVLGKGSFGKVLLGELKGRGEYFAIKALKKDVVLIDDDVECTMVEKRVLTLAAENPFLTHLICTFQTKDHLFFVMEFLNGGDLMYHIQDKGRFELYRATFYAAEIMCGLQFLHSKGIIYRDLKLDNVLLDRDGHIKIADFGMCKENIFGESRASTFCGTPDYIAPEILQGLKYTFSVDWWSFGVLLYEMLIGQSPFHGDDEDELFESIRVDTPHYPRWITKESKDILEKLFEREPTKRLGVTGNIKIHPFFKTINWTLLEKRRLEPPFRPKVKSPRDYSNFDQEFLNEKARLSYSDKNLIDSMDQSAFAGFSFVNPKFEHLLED", "test": "PKCδ-GFP translocation assay in living CHO-k1 cells (confocal microscopy)", "format": "cell-based, Chinese hamster", "conditions": "for Emax at 1 µM: CHO-K1, 1000 nM compound; for minimum effective concentration required to induce translocation of PKC-GFP to the membrane: tested at 200 and 1000 nM; for % Translocation (maximum translocation of PKCδ-GFP to the plasma membrane): 1000 nM compound", "method": "(§1) With a panel of compounds bearing diverse functionality at C13, we began to explore how these modifications affect PKC binding and biological function. Because an obvious prerequisite for PKC pathway involvement is binding to PKC, compounds were initially evaluated for PKC affinity in a cell-free competitive binding assay with tritiated phorbol dibutyrate ([^3H]-PDBu). Assays were performed with representative members of both the conventional (PKCα) and novel (PKCδ) PKC families. Subsequently, compounds were assayed for PKC isoform translocation in real time in living cells using an optical assay. Translocation to the plasma membrane is the hallmark of PKC activation[18],[57],[60] and therefore monitoring the subcellular localization of a PKCδ-GFP fusion protein via confocal microscopy offers a convenient method for determining whether a compound enters a cell and engages its PKC isoform target. Finally and of clinical significance, we also determined the effect of compounds on CD22 surface expression in vitro in NALM6 cells, an ALL cell line previously studied in connection with CD22-targeted CAR T cell therapy, and two additional lymphoma cell lines[11],[31],[65].\nScale bar represents 25 μm. Experiments performed in n = 3 biological replicates. b–d Cytosolic fluorescence normalized to t = 0 (time immediately prior to addition of compound to media) and plotted against time. Error bars excluded for clarity (data presented as the mean of n = 3 biological replicates). Individual curves with error bars included in Supplementary Information.\nPKCδ-GFP Translocation Assay Protocol\nChinese hamster ovary factor K1 (CHO-k1, ATCC) cells were cultured in F-12 Kaighn’s media (Hyclone, 10% fetal bovine serum, 1% penicillin/streptomycin added, reffered to as F-12 +/+ below) at 37 ° C in an incubator (5% CO2). Cell cultures were maintained by splitting cells 1:3 when they reached ~75-100% confluence (every 2-3 days) as follows:\n(Gibco) was used to remove the cells from the culture flask (T75, Falcon). 1 mL of the cell suspension was then added to 9 mL of fresh F-12 +/+ and the sample was sub-cultured until reaching confluence (~2-3 days).\nCells were counted using a Countess II Automated Cell Counter (Fisher). The cell suspension was diluted to 240,000 cells/mL with fresh F-12 +/+ and 2.5 mL of this diluted stock was added to one well in a 6-well plate. The cells were then cultured for 24 hours.\nCells were transfected with Lipofectamine 2000 reagent (Invitrogen) or DA 13:11 at a 10:1 charge […]\nF-12 +/+ was aspirated and cells were washed with F-12 -/-. 2 mL of fresh F-12 -/- was then added to each well, taking care not to disturb adherent cells. For each well of CHO-k1 cells, 12.5 µL Lipofectamine 2000 reagent (Invitrogen) was added to 250 µL Opti-MEM reduced serum media (Invitrogen) in a polypropylene tube and incubated for 20 minutes at RT. Meanwhile, for each well, 4 µg of PKCδ-GFP pDNA and 250 µL Opti-MEM reduced serum media was added to a separate polypropylene tube. 250 µL of the Lipofectamine 2000 suspension was added to the DNA suspension and the solution incubated for 30 minutes at RT. 500 µL of the Lipofectamine/DNA suspension was added to the respective wells of the 6-well plate. The cells were then incubated at 37 ° C (5% CO2) for ~24 hrs.\nF-12 +/+ was aspirated and cells were washed with F-12 -/-. 2.4 mL of fresh F-12 -/- was then added to each well, taking care not to disturb adherent cells. A 4 µg aliquot of PKCδ-GFP pDNA was added to PBS (pH 5.5, final volume 100 µL). 5.6 µL of DA 13:11 (2 mM stock in DMSO) was then added to the DNA solution, and the mixture was gently mixed (by flicking) for 20 seconds, at which point it was added directly to the respective wells of the 6-well plate."}, "[2]": {"system": "PKC", "test": "PKC competitive binding assay, isoform not specified", "design": "species or system human", "method": "as §1\nPKC Binding Assay Protocol […]\ncompetition with 3H-phorbol-12,13-dibutyrate (3H-PDBu) as described below. This procedure entails a glass-fiber filtration method to determine bound radioligand.\nPreparation of PKC binding assay buffer\nTo a 50 mL polypropylene tube was added Tris-HCl (pH 7.4, 1 M, 1 mL), KCl (1 M, 2 mL), CaCl2 (0.1 M, 30 μL), and bovine serum albumin (BSA, 40 mg, Sigma-Aldrich). This mixture was diluted to 20 mL with deionized H2O and mixed gently. The buffer was stored on ice until use. The final […]\nSupplementary Table1. PKC binding assay buffer composition.\nPreparation of phosphatidylserine (PS) vesicles\nFor every two assays, 3.5 mg phosphatidylserine (Avanti Polar Lipids, porcine, 25 mg/mL CHCl3 solution) was concentrated by removing chloroform under a stream of nitrogen followed by reduced pressure. The solid PS was suspended as vesicles in freshly prepared PKC binding assay buffer (3.5 mL) by sonicating six times for 30 sec, with a 30 sec rest between sonications (Branson Sonifier 250, power = 2, 50% duty cycle). The resulting milky cloudy mixture (1 mg/mL) was stored […]\nPreparation of PKC isoform solution\nAssay PKC was prepared by dissolving a 4 μg aliquot of the indicated recombinant human PKC isoform (Invitrogen) into 11.6 mL of PKC binding assay buffer (this amount is sufficient for two assays). The diluted PKC was stored on ice for immediate use.\nPreparation of 3H-PDBu solution\n3H-PDBu (American Radiolabeled Chemicals, Inc.; 1 mCi/mL acetone solution; specific activity: […]) was diluted 10-fold with DMSO. The resulting 500 nM stock solution was further diluted with DMSO to 30 nM.\nPreparation of analog compound dilutions\nCompound dilutions were prepared by serially diluting from a chosen \"high\" concentration by factors of 3 or 4. For each analog compound, seven concentrations were used to define the […]\nTo a polypropylene tube was added 3.3 mL of 1 mg/mL PS vesicles solution, 11 mL of PKC isoform solution, and 1.1 mL of 30 nM 3H-PDBu solution were added. The resulting solution was vortexed to mix and stored on ice.\nPKC binding assay protocol\n- Glass-fiber filters (Whatman GF/B) were prepared by soaking them in a solution of […]"}, "[3]": {"conditions": "CHO-k1 cells, n = 3, read-out: % Translocation (maximum translocation of PKCδ-GFP to the plasma membrane)"}},
  "data": [
    {"smiles": "CCCC=CC=CC(=O)OC1C(=CC(=O)OC)CC2CC(C(C)O)OC(=O)CC(O)CC3CC(OC(C)=O)C(C)(C)C(O)(CC4CC(OC(=O)CCC(=O)O)CC(C=CC(C)(C)C1(O)O2)O4)O3", "note": "(stereo not drawn) [SUW211]", "values": [
      {"measurement": "Emax at 1 µM", "setting": "[1]; [3]", "result": 20, "unit": "%"},
      {"measurement": "minimum effective concentration required to induce translocation of PKC-GFP to the membrane", "setting": "[1]; CHO-k1 cells", "result": 1000, "unit": "nM"},
      {"measurement": "sustained translocation of PKC", "setting": "[1]; at up to 1000 nM", "result": "did not achieve sustained translocation of PKC"},
      {"measurement": "decrease in affinity to PKC", "setting": "[2]; charged substituents at C13, Table 1 data", "result": "20-100 fold"}
    ]},
    {"smiles": "CCCC=CC=CC(=O)OC1C(=CC(=O)OC)CC2CC(C(C)O)OC(=O)CC(O)CC3CC(OC(C)=O)C(C)(C)C(O)(CC4CC(=CC(=O)OCc5ccccc5)CC(C=CC(C)(C)C1(O)O2)O4)O3", "note": "(stereo not drawn) [SUW220]", "values": [
      {"measurement": "% Translocation (maximum translocation of PKCδ-GFP to the plasma membrane)", "setting": "[1]; CHO-k1 cells, n = 3", "result": 50, "unit": "%"},
      {"measurement": "minimum effective concentration required to induce translocation of PKC-GFP to the membrane", "setting": "[1]; CHO-k1 cells", "result": 1000, "unit": "nM"}
    ]},
    {"smiles": "CCC/C=C/C=C/C(=O)O[C@H]1/C(=C/C(=O)OC)C[C@H]2C[C@H]([C@@H](C)O)OC(=O)C[C@H](O)C[C@@H]3C[C@H](OC(C)=O)C(C)(C)[C@](O)(C[C@@H]4C[C@H](OC(C)=O)C[C@H](/C=C/C(C)(C)[C@]1(O)O2)O4)O3", "note": "[SUW206]", "values": [
      {"measurement": "Emax at 0.2 µM", "setting": "[1]; CHO-K1, 200 nM compound, CHO-k1 cells, n = 3, read-out: % Translocation (maximum translocation of PKCδ-GFP to the plasma membrane)", "result": 60, "unit": "%"},
      {"measurement": "minimum effective concentration required to induce translocation of PKC-GFP to the membrane", "setting": "[1]; CHO-k1 cells", "result": 200, "unit": "nM"}
    ]},
    {"smiles": "CCCCCC#CC(=O)O[C@H]1/C(=C/C(=O)OC)C[C@H]2C[C@H]([C@@H](C)O)OC(=O)C[C@H](O)C[C@@H]3C[C@H](OC(C)=O)C(C)(C)[C@](O)(C[C@@H]4C[C@@](O)(CO)C[C@H](/C=C/C(C)(C)[C@]1(O)O2)O4)O3", "note": "[SUW203]", "values": [
      {"measurement": "% Translocation (maximum translocation of PKCδ-GFP to the plasma membrane)", "setting": "[1]; CHO-k1 cells, n = 3", "result": 50, "unit": "%"},
      {"measurement": "Emax at 1 µM", "setting": "[1]; [3]", "result": "~50", "unit": "%"},
      {"measurement": "minimum effective concentration required to induce translocation of PKC-GFP to the membrane", "setting": "[1]; CHO-k1 cells", "result": 1000, "unit": "nM"},
      {"measurement": "PKC binding affinity in words", "setting": "[2]; conventional and novel PKC isoforms", "result": "single-digit nanomolar"}
    ]}
  ]
}
